By IC50 is commonly meant the point on the concentration scale where inhibition reaches its midpoint. Lower therefore signals inhibition by little substance.

For one experiment, the target named is T1, hCRTH2 receptor (Homo sapiens, UniProt Q9Y5Y4).
T1 construct: expressed in transfected cells; host or cells: HEK293
T1 sequence (Q9Y5Y4 1-395): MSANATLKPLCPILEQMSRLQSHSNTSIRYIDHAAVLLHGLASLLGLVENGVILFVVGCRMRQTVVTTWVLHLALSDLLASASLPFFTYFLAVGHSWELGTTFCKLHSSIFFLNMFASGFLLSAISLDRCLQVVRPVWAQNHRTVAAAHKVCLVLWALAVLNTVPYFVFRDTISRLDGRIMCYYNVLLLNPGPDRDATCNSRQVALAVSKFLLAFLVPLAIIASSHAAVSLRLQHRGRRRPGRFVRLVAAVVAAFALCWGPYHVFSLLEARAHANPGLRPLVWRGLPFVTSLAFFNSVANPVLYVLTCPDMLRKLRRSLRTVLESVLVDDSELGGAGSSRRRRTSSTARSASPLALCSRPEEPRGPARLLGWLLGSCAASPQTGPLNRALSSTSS
Kind of experiment: Radioligand displacement assay (3H-PGD2) on hCRTH2 receptor membranes. The format is binding. The settings on record: antagonistic activity, 3H-PGD2 radioligand displacement, HEK293-hCRTH2 membranes. For orientation: Displacement assays read how much labelled ligand stays bound in the presence of the test substance.
Regarding `O=C(O)COc1ccc(Cl)cc1[C@@H]1c2ccccc2CCN1C(=O)OCc1cncnc1` [Example 284, (S)-1-(2-Carboxymethoxy-5-chloro-phenyl)-3,4-dihydro-1H-isoquinoline-2-carboxylic acid pyrimidin-5-ylmethyl ester], the IC50 is 0.86 nM.
The compound `O=C(O)COc1ccc(Cl)cc1[C@@H]1c2ccccc2CCN1C(=O)OCCc1ccccc1` [Example 285, (S)-1-(2-Carboxymethoxy-5-chloro-phenyl)-3,4-dihydro-1H-isoquinoline-2-carboxylic acid phenethyl ester] yielded a half-maximal inhibitory concentration (IC50) of 3.17 nM. This IC50 is about 3.7-fold higher than that of the compound before.
For `O=C(O)COc1ccc(Cl)cc1[C@@H]1c2ccccc2CCN1C(=O)OCCc1cccc(F)c1` [Example 286, (S)-1-(2-Carboxymethoxy-5-chloro-phenyl)-3,4-dihydro-1H-isoquinoline-2-carboxylic acid 2-(3-fluoro-phenyl)-ethyl ester], the 50% inhibitory concentration (IC50) was 2.67 nM. The IC50 values of the last two compounds are within 1.5-fold of each other.
For `Cn1nccc1COC(=O)N1CCc2ccccc2[C@H]1c1cc(Cl)ccc1OCC(=O)O` [Example 287, (S)-1-(2-Carboxymethoxy-5-chloro-phenyl)-3,4-dihydro-1H-isoquinoline-2-carboxylic acid 2-methyl-2H-pyrazol-3-ylmethyl ester], the IC50 was determined as 0.2 nM.
The same measure, in the same setting: the result for `Cc1cc(COC(=O)N2CCc3ccccc3[C@H]2c2cc(Cl)ccc2OCC(=O)O)n(C)n1` [Example 288, (S)-1-(2-Carboxymethoxy-5-chloro-phenyl)-3,4-dihydro-1H-isoquinoline-2-carboxylic acid 2,5-dimethyl-2H-pyrazol-3-ylmethyl ester] reads 0.41 nM.
`CCn1nc(C)cc1CCOC(=O)N1CCc2ccccc2[C@H]1c1cc(Cl)ccc1OCC(=O)O` [Example 289, (S)-1-(2-Carboxymethoxy-5-chloro-phenyl)-3,4-dihydro-1H-isoquinoline-2-carboxylic acid 2-(2-ethyl-5-methyl-2H-pyrazol-3-yl)-ethyl ester] came in with a concentration for half-maximal inhibition (IC50) of 2.94 nM.
The same measure, in the same setting: as for `Cn1cncc1COC(=O)N1CCc2ccccc2[C@H]1c1cc(Cl)ccc1OCC(=O)O` [Example 290, (S)-1-(2-Carboxymethoxy-5-chloro-phenyl)-3,4-dihydro-1H-isoquinoline-2-carboxylic acid 3-methyl-3H-imidazol-4-ylmethyl ester], the figure is 0.48 nM; as for `Cc1cc(C)n(CCOC(=O)N2CCc3ccccc3[C@H]2c2cc(Cl)ccc2OCC(=O)O)n1` [Example 291, (S)-1-(2-Carboxymethoxy-5-chloro-phenyl)-3,4-dihydro-1H-isoquinoline-2-carboxylic acid 2-(3,5-dimethyl-pyrazol-1-yl)-ethyl ester], 8.92 nM; as for `Cc1cnn(COC(=O)N2CCc3ccccc3[C@H]2c2cc(Cl)ccc2OCC(=O)O)c1` [Example 292, (S)-1-(2-Carboxymethoxy-5-chloro-phenyl)-3,4-dihydro-1H-isoquinoline-2-carboxylic acid 4-methyl-pyrazol-1-ylmethyl ester], 2.08 nM.
Still for that read-out and setting: the result for `Cc1nc2ccccc2n1CCOC(=O)N1CCc2ccccc2[C@H]1c1cc(Cl)ccc1OCC(=O)O` [Example 293] reads 98.1 nM.
Still for that read-out and setting: as for `O=C(O)COc1ccc(Cl)cc1[C@@H]1c2ccccc2CCN1C(=O)OCc1nc2ccccc2s1` [Example 294, (S)-1-(2-Carboxymethoxy-5-chloro-phenyl)-3,4-dihydro-1H-isoquinoline-2-carboxylic acid benzothiazol-2-ylmethyl ester], the figure is 1.94 nM.
As to `O=C(O)COc1ccc(Cl)cc1[C@@H]1c2ccccc2CCN1C(=O)OCc1nc2ccccc2o1` [Example 295, (S)-1-(2-Carboxymethoxy-5-chloro-phenyl)-3,4-dihydro-1H-isoquinoline-2-carboxylic acid benzooxazol-2-ylmethyl ester], the half-inhibitory concentration (IC50) was found to be 7.41 nM.
For `Cn1nc(COC(=O)N2CCc3ccccc3[C@H]2c2cc(Cl)ccc2OCC(=O)O)c2ccccc21` [Example 296, (S)-1-(2-Carboxymethoxy-5-chloro-phenyl)-3,4-dihydro-1H-isoquinoline-2-carboxylic acid 1-methyl-1H-indazol-3-ylmethyl ester], the IC50 came to 1.72 nM.
For `O=C(O)COc1ccc(Cl)cc1[C@@H]1c2ccccc2CCN1C(=O)OCn1ncc2ccccc21` [Example 297, (S)-1-(2-Carboxymethoxy-5-chloro-phenyl)-3,4-dihydro-1H-isoquinoline-2-carboxylic acid indazol-1-ylmethyl ester], the IC50 worked out at 1.06 nM.

Still in this experiment, the particulars now being: antagonistic activity; 3H-PGD2 displacement on HEK293-hCRTH2 membrane fragments.
Turning to `O=C(O)COc1ccc(F)cc1[C@@H]1c2ccccc2CCN1C(=O)OCc1ccccc1` [Example 221, (S)-1-(2-Carboxymethoxy-5-fluoro-phenyl)-3,4-dihydro-1H-isoquinoline-2-carboxylic acid benzyl ester], the IC50 is 2.91 nM.
Still for that read-out and setting: as for `CC(C)(C)OC(=O)N1CCc2ccccc2[C@H]1c1cc(Cl)ccc1OCC(=O)O` [Example 228], the figure is 71.3 nM; as for `O=C(O)COc1ccc(Cl)cc1[C@@H]1c2ccc(F)c(F)c2CCN1C(=O)OCc1ccccc1` [Example 229, (S)-1-(2-Carboxymethoxy-5-chloro-phenyl)-5,6-difluoro-3,4-dihydro-1H-isoquinoline-2-carboxylic acid benzyl ester], 4.95 nM.
The same measure, in the same setting: as for `O=C(O)COc1ccc(Cl)cc1C1c2ccccc2CN1C(=O)OCc1ccccc1` (stereo not shown) [Example 231, 1-(2-Carboxymethoxy-5-chloro-phenyl)-1,3-dihydro-isoindole-2-carboxylic acid benzyl ester], the figure is 2.65 nM.
For `O=C(O)COc1ccc(Cl)cc1[C@@H]1c2ccccc2CCN1C(=O)[C@@H]1C[C@H]1c1ccccc1` [Example 232, {4-Chloro-2-[(S)-2-((1R,2R)-2-phenyl-cyclopropanecarbonyl)-1,2,3,4-tetrahydro-isoquinolin-1-yl]-phenoxy}-acetic acid], the IC50 was 1.39 nM.
For the compound `C[C@H](OC(=O)N1CCc2ccccc2[C@H]1c1cc(Cl)ccc1OCC(=O)O)c1ccccc1` [Example 261], the IC50 worked out at 97.1 nM.
Same read-out and setting: the result for `O=C(O)COc1ccc(Cl)cc1[C@@H]1c2ccccc2CCN1C(=O)OCc1nccs1` [Example 273, (S)-1-(2-Carboxymethoxy-5-chloro-phenyl)-3,4-dihydro-1H-isoquinoline-2-carboxylic acid thiazol-2-ylmethyl ester] reads 2.04 nM; that for `Cc1ncsc1CCOC(=O)N1CCc2ccccc2[C@H]1c1cc(Cl)ccc1OCC(=O)O` [Example 274, (S)-1-(2-Carboxymethoxy-5-chloro-phenyl)-3,4-dihydro-1H-isoquinoline-2-carboxylic acid 2-(4-methyl-thiazol-5-yl)-ethyl ester], 2.42 nM; that for `Cc1cnc(COC(=O)N2CCc3ccccc3[C@H]2c2cc(Cl)ccc2OCC(=O)O)s1` [Example 275, (S)-1-(2-Carboxymethoxy-5-chloro-phenyl)-3,4-dihydro-1H-isoquinoline-2-carboxylic acid 5-methyl-thiazol-2-ylmethyl ester], 5.01 nM.
On the same count and under the same terms, the result for `Cc1csc(COC(=O)N2CCc3ccccc3[C@H]2c2cc(Cl)ccc2OCC(=O)O)n1` [Example 276, (S)-1-(2-Carboxymethoxy-5-chloro-phenyl)-3,4-dihydro-1H-isoquinoline-2-carboxylic acid 4-methyl-thiazol-2-ylmethyl ester] reads 1.82 nM.
In turn, `Cc1ncc(COC(=O)N2CCc3ccccc3[C@H]2c2cc(Cl)ccc2OCC(=O)O)s1` [Example 277, (S)-1-(2-Carboxymethoxy-5-chloro-phenyl)-3,4-dihydro-1H-isoquinoline-2-carboxylic acid 2-methyl-thiazol-5-ylmethyl ester] showed a half-maximal inhibitory concentration (IC50) of 0.77 nM.
`Cc1nc(COC(=O)N2CCc3ccccc3[C@H]2c2cc(Cl)ccc2OCC(=O)O)cs1` [Example 278, (S)-1-(2-Carboxymethoxy-5-chloro-phenyl)-3,4-dihydro-1H-isoquinoline-2-carboxylic acid 2-methyl-thiazol-4-ylmethyl ester] gave an IC50 of 1.28 nM.
As for `Cc1cc(COC(=O)N2CCc3ccccc3[C@H]2c2cc(Cl)ccc2OCC(=O)O)on1` [Example 279, (S)-1-(2-Carboxymethoxy-5-chloro-phenyl)-3,4-dihydro-1H-isoquinoline-2-carboxylic acid 3-methyl-isoxazol-5-ylmethyl ester], the IC50 was determined as 0.87 nM.
Regarding `Cc1conc1COC(=O)N1CCc2ccccc2[C@H]1c1cc(Cl)ccc1OCC(=O)O` [Example 280, (S)-1-(2-Carboxymethoxy-5-chloro-phenyl)-3,4-dihydro-1H-isoquinoline-2-carboxylic acid 4-methyl-isoxazol-3-ylmethyl ester], the IC50 was determined as 0.35 nM. Compared with the last compound, the IC50 is about 2.5-fold lower.
As to `Cc1noc(C)c1COC(=O)N1CCc2ccccc2[C@H]1c1cc(Cl)ccc1OCC(=O)O` [Example 281, (S)-1-(2-Carboxymethoxy-5-chloro-phenyl)-3,4-dihydro-1H-isoquinoline-2-carboxylic acid 3,5-dimethyl-isoxazol-4-ylmethyl ester], the IC50 is 4.8 nM.
The same measure, in the same setting: as for `O=C(O)COc1ccc(Cl)cc1[C@@H]1c2ccccc2CCN1C(=O)OCc1cnccn1` [Example 282, (S)-1-(2-Carboxymethoxy-5-chloro-phenyl)-3,4-dihydro-1H-isoquinoline-2-carboxylic acid pyrazin-2-ylmethyl ester], the figure is 3.96 nM; as for `O=C(O)COc1ccc(Cl)cc1[C@@H]1c2ccccc2CCN1C(=O)OCc1ccncn1` [Example 283, (S)-1-(2-Carboxymethoxy-5-chloro-phenyl)-3,4-dihydro-1H-isoquinoline-2-carboxylic acid pyrimidin-4-ylmethyl ester], 7.56 nM.
